# According to paper PMC3419814 (Bioorganic & medicinal chemistry, 2012):
# Test: logP from HPLC retention times
# Type: physicochemical
row,chromatographic logP,Compound
1,4.8 to 5.5,"COc1ccc(Cl)cc1Nc1nc(-c2sc(NC(=O)C(C)(C)C)nc2C)c(-n2cc(CO)nn2)s1 [compound 13, N-(2-(5-Chloro-2-methoxyphenylamino)-5-(4-(hydroxyl-methyl)-1H-1,2,3-triazol-1-yl)-4′-methyl-4,5′-bithiazol-2′-yl)pivalamide]"
2,4.8 to 5.5,"COC(=O)c1cn(-c2sc(Nc3cc(Cl)ccc3OC)nc2-c2sc(NC(=O)C(C)(C)C)nc2C)nn1 [compound 14, Methyl 1-(2-(5-chloro-2-methoxyphenylamino)-4′-methyl-2′-pivalamido-4,5′-bithiazol-5-yl)-1H-1,2,3-triazole-4-carboxylate]"
3,4.8 to 5.5,"COc1ccc(Cl)cc1Nc1nc(-c2sc(NC(=O)C(C)(C)C)nc2C)c(-n2cc(C(=O)O)nn2)s1 [compound 15, 1-(2-(5-Chloro-2-methoxyphenylamino)-4′-methyl-2′-pivalamido-4,5′-bithiazol-5-yl)-1H-1,2,3-triazole-4-carboxylic acid]"
